Laboratory results: patent US11493451B2, “Colorimetric drug test strip using porous support material” (Palo Alto Research Center Incorporated, priority 2019, dated 2022)
Like-named read-outs stand apart in the source and are kept apart here.

Key:
[1] = Methamphetamine disposition in oral fluid and plasma (Huestis et al.)
Description: (§1) While pharmacokinetic profile is specific to each individual drug, there are multiple challenges with immunoassay-based roadside drug testing. Current hand-held immunoassays drug testing devices from saliva detect the metabolites of the drugs in question. One challenge with metabolite testing is that depending on the drug and on the mode of administration, there may be delays in the detectability of the drug from the time of ingestion to the test time. For example, in the case of methylenedioxy-methamphetamine (MDMA) detection, the time to maximum concentration of (tmax) of MDMA is 2.8 hours, while for its main metabolite, methylenedioxyamphetamine (MDA), the tmax increases to 4.8 hours. […] This makes metabolite detection very challenging.

[2] = MA (20 mg), cited from earlier work; for Concentration in Saliva: maximum concentration in oral fluid
[3] = THC and metabolite concentrations in oral fluid and whole blood after smoking a cannabis joint (Fabritius et al.)
Description: as §1

[4] = cited from earlier work; for Cmax in blood or plasma / Concentration in Saliva: THC (40 mg); for Concentration in Saliva: maximum concentration in oral fluid
[5] = cited from earlier work
[6] = Cocaine and metabolites in human oral fluid and plasma following controlled administration (Scheidweiler et al.)
Description: as §1

[7] = Cocaine (75 mg subcutaneous), cited from earlier work
[8] = Oral fluid and plasma MDMA and metabolite after controlled oral MDMA administration (Desrosiers et al.); assay type: in vivo, human; conditions: MDMA (75 mg); for Kp: human, saliva (oral fluid) / plasma, read-out: Ratio Saliva/Blood
Description: This makes metabolite detection very challenging.

[9] = MDMA (75 mg), oral, cited from earlier work; for Concentration in Saliva: maximum concentration in oral fluid
[10] = after MDMA; cited from earlier work
[11] = Cocaine (75 mg subcutaneous), cocaine vs BE + EME

## CN[C@@H](C)Cc1ccccc1 [MA, methamphetamine]
[1]; MA (20 mg), MA vs A
  Ratio Parent:Metabolite, Cmax in blood or plasma: 5.3
  Ratio Parent:Metabolite, concentration in saliva: 13.7
[1]; human, saliva (oral fluid) / plasma, 20 mg
  Kp: 6
[2]
  Cmax in blood or plasma: 32 ng/mL
  Concentration in Saliva: 192 ng/mL

## CCCCCc1cc(O)c2c(c1)OC(C)(C)[C@@H]1CCC(C)=C[C@@H]21 [THC, Δ9-tetrahydrocannabinol]
[3]; THC (40 mg), THC vs THC-COOH
  Ratio Parent:Metabolite, Cmax in blood or plasma: 2.1
  Ratio Parent:Metabolite, concentration in saliva: 2120
[3]; human, saliva (oral fluid) / whole blood, inhaled, 40 mg
  Kp: 7.3
[4]
  Cmax in blood or plasma: 87 ng/mL
  Concentration in Saliva: 636 ng/mL
[4]; in one study, saliva
  THC concentration in saliva relative to main metabolite THC-COOH (times higher): ~2000 ×
[5]; THC ingested from food, saliva
  time over which saliva THC concentration decreases slowly after consumption: about 24 hours
[5]; first 15 minutes, saliva
  THC concentration in saliva after being ingested from food versus same amount of smoked THC: about ten times lower
[5]; smoked or vaped THC
  rapid decay after maximum concentration: 1 to 2 h
  time to peak effect and maximum concentration: seconds or minutes

## COC(=O)[C@H]1[C@@H](OC(=O)c2ccccc2)C[C@@H]2CC[C@H]1N2C [Cocaine, cocaine]
[6]; [11]
  Ratio Parent:Metabolite, Cmax in blood or plasma: 0.8
  Ratio Parent:Metabolite, concentration in saliva: 4.1
[6]; human, saliva (oral fluid) / plasma, sc, 75 mg
  Kp: 3.6
[7]
  Cmax in blood or plasma: 305 ng/mL
[7]; maximum concentration in oral fluid
  Concentration in Saliva: 1092 ng/mL

## CC(N)Cc1ccc2c(c1)OCO2 (stereo not drawn) [MDA, methylenedioxyamphetamine]
[8]
  Kp: 5.8
[9]
  Cmax in blood or plasma: 7 ng/mL
  Concentration in Saliva: 41 ng/mL
[10]
  time to maximum concentration (tmax): 4.8 h

## CNC(C)Cc1ccc2c(c1)OCO2 (stereo not drawn) [MDMA, methylenedioxy-methamphetamine]
[8]; MDMA vs MDA
  Ratio Parent:Metabolite, concentration in saliva: 40
[8]
  Kp: 11
[9]
  Cmax in blood or plasma: 150 ng/mL
  Concentration in Saliva: 1643 ng/mL
[10]
  time to maximum concentration (tmax): 2.8 h

## CCCCCc1cc(O)c2c(c1)OC(C)(C)[C@@H]1CCC(C(=O)O)=C[C@@H]21 [THC-COOH]
[3]; THC (40 mg)
  Ratio Saliva/Blood: 0.007
[4]
  Cmax in blood or plasma: 41 ng/mL
  Concentration in Saliva: 0.3 ng/mL

## CC(N)Cc1ccccc1 (stereo not drawn) [A]
[2]
  Concentration in Saliva: 14 ng/mL
